Experimental data from PubChem BioAssay (NCI).
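How tested: cells in 96-well plates exposed to compound for 48 hours at five concentrations. At the TGI there is no net growth.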

How the values were obtained:
Test in all cases: NCI tumour cell line growth inhibition, 48 h
[1] = test system: 786-0 renal
[2] = test system: A549 NSCLC
[3] = test system: ACHN renal
[4] = test system: CAKI-1 renal
[5] = test system: CCRF-CEM leukemia
[6] = test system: DLD-1 colon
[7] = test system: DMS 273 small cell lung
[8] = test system: EKVX NSCLC
[9] = test system: HCT-116 colon
[10] = test system: HCT-15 colon
[11] = test system: HL-60(TB) leukemia
[12] = test system: HOP-92 NSCLC
[13] = test system: HT29 colon
[14] = test system: IGROV1 ovarian
[15] = test system: K-562 leukemia
[16] = test system: KM12 colon
[17] = test system: KM20L2 colon
[18] = test system: LOX IMVI melanoma
[19] = test system: LXFL 529 NSCLC
[20] = test system: M14 melanoma
[21] = test system: M19-MEL melanoma
[22] = test system: MALME-3M melanoma
[23] = test system: MOLT-4 leukemia
[24] = test system: NCI-H226 lung
[25] = test system: NCI-H23 lung
[26] = test system: NCI-H522 lung
[27] = test system: OVCAR-3 ovarian
[28] = test system: RPMI-8226 leukemia
[29] = test system: RXF-631 renal
[30] = test system: SF-268 CNS
[31] = test system: SF-295 CNS
[32] = test system: SF-539 CNS
[33] = test system: SK-MEL-2 melanoma
[34] = test system: SK-MEL-28 melanoma
[35] = test system: SK-OV-3 ovarian
[36] = test system: SN12C renal
[37] = test system: SNB-19 CNS
[38] = test system: SNB-75 CNS
[39] = test system: SNB-78 CNS
[40] = test system: SR leukemia
[41] = test system: SW-620 colon
[42] = test system: TK-10 renal
[43] = test system: U251 CNS
[44] = test system: UACC-257 melanoma
[45] = test system: UACC-62 melanoma
[46] = test system: UO-31 renal
[47] = test system: XF 498 CNS
[48] = test system: A498 renal
[49] = test system: COLO 205 colon
[50] = test system: DMS 114 small cell lung
[51] = test system: HCC-2998 colon
[52] = test system: HOP-62 NSCLC
[53] = test system: NCI-H460 lung
[54] = test system: OVCAR-4 ovarian
[55] = test system: OVCAR-5 ovarian
[56] = test system: OVCAR-8 ovarian
[57] = test system: RXF 393 renal
[58] = test system: SK-MEL-5 melanoma

Measured: TGI

COc1cccc2c1N[S@](=O)S2
not listed: [48] | [49] | [50] | [51] | [52] | [53] | [54] | [55] | [56] | [57] | [58]
> 100 µM: all other assays above

O=C(Cc1nc2ccccc2o1)C(=O)Nc1ccccc1C(F)(F)F
not listed: [23] | [34] | [40]
> 100 µM: all other assays above

CCNC(=O)N(CC)CN(CC)C(=O)NCC
not listed: [1] | [7] | [12] | [14] | [25] | [40] | [42] | [43] | [53] | [54] | [57] | [58]
> 100 µM: all other assays above
